target: T1, LPA1 (Homo sapiens, UniProt Q92633); test: LPA1 calcium flux assay (LPA1 functional antagonist assay); assay type: cell-based; conditions: PathHunter CHO-K1 EDG2 β-Arrestin cells, calcium indicator dye, stimulated with EC80 concentration of LPA, FLIPR
T1 construct: ProLink (β-galactosidase enzyme-donor fragment); host or cells: CHO-K1 (PathHunter EDG2 β-Arrestin cell line)
Experimental: The effectiveness of compounds of the present invention as LPA1 inhibitors can be determined in an LPA1 functional antagonist assay as follows.
PathHunter® CHO-K1 EDG2 β-Arrestin Cell Line (Eurofins DiscoverX Corporation, Cat #93-0644C2) were plated overnight (11,500 cells/well) in poly-D-lysine coated 384-well microplates (Corning, Cat #356697) in AssayComplete™ Cell Plating 35 Reagent (Eurofins DiscoverX Corporation, Cat #93-0563R35). Following overnight culture, cells were loaded with calcium indicator dye from the HitHunter Calcium No WashPLUS Assay kit (Eurofins DiscoverX Corporation, Cat #93-0091) for 45 minutes at 37° C. Test compounds solubilized in DMSO (Sigma, Cat #276855) on 384-well polypropylene microplates (Greiner bio-one, Cat #781280) were then diluted to intermediate concentration with assay buffer [1×HBSS calcium/magnesium (Corning, Cat #21-023-CM) and 20 mM HEPES (Corning, Cat #25-060-Cl)] before addition to cells by Agilent Velocity 11 with a final concentration of 0.4% DMSO. After compound addition, assay plates were equilibrated to room temperature for 30 minutes. Cells were then stimulated by addition of EC80 concentration of LPA (Cat #, 10010093) in assay buffer containing [1×HBSS calcium/magnesium (Corning, Cat #21-023-CM), 20 mM HEPES (Corning, Cat #25-060-Cl), and 0.1% BSA (Sigma, Cat #A8806)] using Molecular Devices FLIPR Tetra PLUS®. IC50 values were determined by Chemical and Biological Information System from ChemInnovation Software, Inc.
The compounds of this invention were tested for their activity to inhibit LPA1 as determined in an LPA1 functional antagonist assay as described herein.

T1 sequence (Q92633 whole entry, the tested form may be a part): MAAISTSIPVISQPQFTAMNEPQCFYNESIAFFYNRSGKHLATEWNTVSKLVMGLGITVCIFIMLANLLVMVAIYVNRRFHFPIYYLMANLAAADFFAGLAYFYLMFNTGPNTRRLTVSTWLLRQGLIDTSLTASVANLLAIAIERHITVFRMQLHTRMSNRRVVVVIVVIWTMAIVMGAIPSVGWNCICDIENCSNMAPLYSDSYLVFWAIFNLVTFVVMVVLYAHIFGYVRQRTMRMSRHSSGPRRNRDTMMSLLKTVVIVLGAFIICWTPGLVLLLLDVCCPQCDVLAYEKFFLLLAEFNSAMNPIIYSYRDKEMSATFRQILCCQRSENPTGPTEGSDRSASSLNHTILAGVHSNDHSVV

| Compound | IC50 [µM] |
| --- | --- |
| CCc1nc(-c2nnn(C)c2COc2nccc(C3CCC3)n2)ccc1[C@H]1CCC[C@@H](CC(=O)O)O1 (relative stereo) [Example 21, 2-(rel-(2S,6R)-6-(6-(5-(((4-cyclobutylpyrimidin-2-yl)oxy)methyl)-1-methyl-1H-1,2,3-triazol-4-yl)-2-ethylpyridin-3-yl)tetrahydro-2H-pyran-2-yl)acetic acid] | < 0.1 |
| CCCc1ccc(=O)n(Cc2c(-c3ccc(N4CC[C@@H](C(CC)C(=O)O)C4)c(CC)n3)nnn2C)c1 (single isomer, unassigned) [Example 17, (S) or (R)-2-((S)-1-(2-ethyl-6-(1-methyl-5-((2-oxo-5-propylpyridin-1(2H)-yl)methyl)-1H-1,2,3-triazol-4-yl)pyridin-3-yl)pyrrolidin-3-yl)butanoic acid] | 0.5 to 5 |
| CCCc1ccc(=O)n(Cc2c(-c3ccc(N4CC[C@@H](C(CC)C(=O)O)C4)c(CC)n3)nnn2C)c1 (single isomer, unassigned) [Example 18, (R) or (S)-2-((S)-1-(2-ethyl-6-(1-methyl-5-((2-oxo-5-propylpyridin-1(2H)-yl)methyl)-1H-1,2,3-triazol-4-yl)pyridin-3-yl)pyrrolidin-3-yl)butanoic acid] | 5 to 10000 |
| CCCN(C)C(=O)OCc1c(-c2ccc(N3CC[C@@H](C(CC)C(=O)O)C3)c(CC)n2)nnn1C (single isomer, unassigned) [Example 19, (S) or (R)-2-((S)-1-(2-ethyl-6-(1-methyl-5-(((methyl(propyl)carbamoyl)oxy)methyl)-1H-1,2,3-triazol-4-yl)pyridin-3-yl)pyrrolidin-3-yl)butanoic acid] | 5 to 10000 |
| CCCN(C)C(=O)OCc1c(-c2ccc(N3CC[C@@H](C(CC)C(=O)O)C3)c(CC)n2)nnn1C (single isomer, unassigned) [Example 20, (R) or (S)-2-((S)-1-(2-ethyl-6-(1-methyl-5-(((methyl(propyl)carbamoyl)oxy)methyl)-1H-1,2,3-triazol-4-yl)pyridin-3-yl)pyrrolidin-3-yl)butanoic acid] | 0.5 to 5 |
| CCc1nc(-c2nnn(C)c2COc2nccc(C3CCC3)n2)ccc1[C@@H]1CCC[C@@H](CC(=O)O)O1 (single isomer, unassigned) [Example 22, 2-((2S,6S) or (2R,6R)-6-(6-(5-(((4-cyclobutylpyrimidin-2-yl)oxy)methyl)-1-methyl-1H-1,2,3-triazol-4-yl)-2-ethylpyridin-3-yl)tetrahydro-2H-pyran-2-yl)acetic acid] | < 0.1 |
| CCc1nc(-c2nnn(C)c2COc2nccc(C3CCC3)n2)ccc1[C@H]1CCC[C@H](CC(=O)O)O1 (single isomer, unassigned) [Example 23, 2-((2R,6R) or (2S,6S)-6-(6-(5-(((4-cyclobutylpyrimidin-2-yl)oxy)methyl)-1-methyl-1H-1,2,3-triazol-4-yl)-2-ethylpyridin-3-yl)tetrahydro-2H-pyran-2-yl)acetic acid] | 0.1 to 0.5 |
| CCCc1ccc(=O)n(Cc2c(-c3ccc([C@@H]4CCC[C@@H](CC(=O)O)O4)c(CC)n3)nnn2C)c1 (single isomer, unassigned) [Example 24, 2-((2S,6S) or (2R,6R)-6-(2-ethyl-6-(1-methyl-5-((2-oxo-5-propylpyridin-1(2H)-yl)methyl)-1H-1,2,3-triazol-4-yl)pyridin-3-yl)tetrahydro-2H-pyran-2-yl)acetic acid] | 0.5 to 5 |
| CCCN(C)C(=O)OCc1c(-c2ccc([C@@H]3CCC[C@@H](CC(=O)O)O3)c(CC)n2)nnn1C (single isomer, unassigned) [Example 25, 2-((2S,6S) or (2R,6R)-6-(2-ethyl-6-(1-methyl-5-(((methyl(propyl)carbamoyl)oxy)methyl)-1H-1,2,3-triazol-4-yl)pyridin-3-yl)tetrahydro-2H-pyran-2-yl)acetic acid] | 0.5 to 5 |
| CCc1nc(-c2nnn(C)c2COc2nccc(C3CCC3)n2)ccc1C1CCOC(CC(=O)O)C1 (single isomer, unassigned) [Example 34, 2-(4-(6-(5-(((4-cyclobutylpyrimidin-2-yl)oxy)methyl)-1-methyl-1H-1,2,3-triazol-4-yl)-2-ethylpyridin-3-yl)tetrahydro-2H-223,423-pyran-2-yl)acetic acid] | < 0.1 |
| CCc1nc(-c2nnn(C)c2COc2nccc(C3CCC3)n2)ccc1C1CCOC(CC(=O)O)C1 (single isomer, unassigned) [Example 35, 2-(4-(6-(5-(((4-cyclobutylpyrimidin-2-yl)oxy)methyl)-1-methyl-1H-1,2,3-triazol-4-yl)-2-ethylpyridin-3-yl)tetrahydro-2H-223,423-pyran-2-yl)acetic acid] | < 0.1 |
| CCc1nc(-c2nnn(C)c2COc2nccc(C3CCC3)n2)ccc1C1CCOC(CC(=O)O)C1 (single isomer, unassigned) [Example 36, 2-(4-(6-(5-(((4-cyclobutylpyrimidin-2-yl)oxy)methyl)-1-methyl-1H-1,2,3-triazol-4-yl)-2-ethylpyridin-3-yl)tetrahydro-2H-223,423-pyran-2-yl)acetic acid] | < 0.1 |
| CCc1nc(-c2nnn(C)c2COc2nccc(C3CCC3)n2)ccc1C1CCOC(CC(=O)O)C1 (single isomer, unassigned) [Example 37, 2-(4-(6-(5-(((4-cyclobutylpyrimidin-2-yl)oxy)methyl)-1-methyl-1H-1,2,3-triazol-4-yl)-2-ethylpyridin-3-yl)tetrahydro-2H-2λ^3,4λ^3-pyran-2-yl)acetic acid] | < 0.1 |
| CCCc1ccc(=O)n(Cc2c(-c3ccc(C4CN(CC(=O)O)CC(F)(F)C4)c(C)n3)nnn2C)c1 (single isomer, unassigned) [Example 40, (R) or (S)-2-(3,3-difluoro-5-(2-methyl-6-(1-methyl-5-((2-oxo-5-propylpyridin-1(2H)-yl)methyl)-1H-1,2,3-triazol-4-yl)pyridin-3-yl)piperidin-1-yl)acetic acid] | 5 to 10000 |
| CCCc1ccc(=O)n(Cc2c(-c3ccc(C4CN(CC(=O)O)CC(F)(F)C4)c(C)n3)nnn2C)c1 (single isomer, unassigned) [Example 41, (S) or (R)-2-(3,3-difluoro-5-(2-methyl-6-(1-methyl-5-((2-oxo-5-propylpyridin-1(2H)-yl)methyl)-1H-1,2,3-triazol-4-yl)pyridin-3-yl)piperidin-1-yl)acetic acid] | 0.1 to 0.5 |
| CCc1nc(-c2nnn(C)c2COc2nccc(C3CCC3)n2)ccc1N1CC[C@@H](CC(=O)O)C1 [Example 1, 2-[(3S)-1-[6-(5-{[(4-cyclobutylpyrimidin-2-yl)oxy]methyl}-1-methyl-1H-1,2,3-triazol-4-yl)-2-ethylpyridin-3-yl]pyrrolidin-3-yl]acetic acid] | < 0.1 |
| CCCc1ccc(=O)n(Cc2c(-c3ccc(N4CCC(CC(=O)O)C4)c(C)n3)nnn2C)c1 (stereo not drawn) [Example 2, 2-(1-(2-methyl-6-(1-methyl-5-((2-oxo-5-propylpyridin-1(2H)-yl)methyl)-1H-1,2,3-triazol-4-yl)pyridin-3-yl)pyrrolidin-3-yl)acetic acid] | 0.5 to 5 |
| Cc1nc(-c2nnn(C)c2COc2nccc(C3CCC3)n2)ccc1N1CCC(CC(=O)O)C1 (stereo not drawn) [Example 3, 2-(1-(6-(5-(((4-cyclobutylpyrimidin-2-yl)oxy)methyl)-1-methyl-1H-1,2,3-triazol-4-yl)-2-methylpyridin-3-yl)pyrrolidin-3-yl)acetic acid] | < 0.1 |
| CCc1nc(-c2nnn(C)c2COc2nccc(C3CCC3)n2)ccc1N1CC[C@H](CC(=O)O)C1 [Example 4, (R)-2-(1-(6-(5-(((4-cyclobutylpyrimidin-2-yl)oxy)methyl)-1-methyl-1H-1,2,3-triazol-4-yl)-2-ethylpyridin-3-yl)pyrrolidin-3-yl)acetic acid] | 0.1 to 0.5 |
| Cc1nc(-c2nnn(C)c2COc2nccc(C3CCC3)n2)ccc1N1CC[C@H](CC(=O)O)C1 [Example 5, (R)-2-(1-(6-(5-(((4-cyclobutylpyrimidin-2-yl)oxy)methyl)-1-methyl-1H-1,2,3-triazol-4-yl)-2-methylpyridin-3-yl)pyrrolidin-3-yl)acetic acid] | 0.1 to 0.5 |
| Cc1nc(-c2nnn(C)c2COc2nccc(C3CCC3)n2)ccc1N1CC[C@@H](CC(=O)O)C1 [Example 6, (S)-2-(1-(6-(5-(((4-cyclobutylpyrimidin-2-yl)oxy)methyl)-1-methyl-1H-1,2,3-triazol-4-yl)-2-methylpyridin-3-yl)pyrrolidin-3-yl)acetic acid] | < 0.1 |
| Cc1nc(-c2nnn(C)c2COc2cc(-n3cccn3)ncn2)ccc1N1CC[C@H](CC(=O)O)C1 [Example 7, (R)-2-(1-(6-(5-(((6-(1H-pyrazol-1-yl)pyrimidin-4-yl)oxy)methyl)-1-methyl-1H-1,2,3-triazol-4-yl)-2-methylpyridin-3-yl)pyrrolidin-3-yl)acetic acid] | 0.1 to 0.5 |
| CCc1nc(-c2nnn(C)c2COc2nccc(C3CCC3)n2)ccc1N1CC[C@@H]([C@@H](C)C(=O)O)C1 [Example 8] | < 0.1 |
| CCc1nc(-c2nnn(C)c2COc2nccc(C3CCC3)n2)ccc1N1CC[C@H]([C@@H](C)C(=O)O)C1 [Example 9] | < 0.1 |
